The record followed here is EP2698385A1, “Detection of synthetic cannabinoids” (priority 2012, dated 2014).

Each structure is given as a SMILES string. Where two headings read alike, the source gives them in different places.

What all share (assay type): binding, sheep
Assay [1] deals with Antibody to Immunogen II. Put plainly: Competitive ELISA (Example 36), antibody RS1833B12, tracer ESC4555/LK959, standard JWH-018. The procedure, abridged:
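Sheep antiserum IgG coated on plates overnight at 4°C; standard or cross-reactant competes with hapten-HRP conjugate in Tris buffer pH 7.2 for 1 h at 25°C.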

Assay [2] deals with Antibody to Immunogen IV.
Assay [3] concerns Antibody to Immunogen VII. Particulars: Cross-reactants at 100 ng/ml; Antibody to Immunogen VII.
[4] abbreviates: Cross-reactants at 100 ng/ml, Antibody to Immunogen II.
The mark [5] stands for this setting: Cross-reactants at 100 ng/ml, Antibody to Immunogen IV.

Turning to `O=C(O)CCCCn1cc(C(=O)c2cccc3ccccc23)c2ccccc21` [JWH-018 N-pentanoic acid metabolite], the “%B/B0” value in assay [1] (setting [4]) was 85.61%; in assay [2] (setting [5]), 99.89%; in assay [3], 53.02%.
The matching figures for `O=C(c1cccc2ccccc12)c1cn(CCN2CCOCC2)c2ccccc12` [WIN 55,225 (other name JWH-200), JWH-200]: 54.02%, 77.08% and 42.85%.
The matching figures for `O=C(c1cccc2ccccc12)c1cn(CCCCCO)c2ccccc12` [JWH-018 N-(5-hydroxypentyl) metabolite]: 53.38%, 78.42% and 53.32%.
In the same order, the values of `O=C(c1cccc2ccccc12)c1c[nH]c2ccccc12` [3-(1-naphthoyl)-1H-Indole, 3-(1-naphthoyl)-1H-indole] are 99.18%, 95.55% and 80.08%.
`CCCCn1cc(C(=O)c2cccc3ccccc23)c2ccccc21` [JWH-073]: the “%B/B0” value is 15.24% in assay [1] (setting [4]), 13.63% in assay [2] (setting [5]) and 58.34% in assay [3].
In the same order, the values of `CCCCCn1cc(C(=O)c2cccc3ccccc23)c2ccc(O)cc21` [JWH-018 6-hydroxyindole metabolite] are 24.39%, 51.00% and 68.17%.
For the compound `CCCCCn1cc(C(=O)c2cccc3ccccc23)c2c(O)cccc21` [JWH-018 4-hydroxyindole metabolite], the “%B/B0” value in assay [1] (setting [4]) was 29.49%; in assay [2] (setting [5]), 20.42%; in assay [3], 89.96%.
In the same order, the values of `CCCCCn1cc(C(=O)c2cccc3ccccc23)c2cc(O)ccc21` [JWH-018 5-hydroxyindole metabolite] are 12.14%, 78.56% and 85.76%.
Regarding `CCCCCn1cc(C(=O)c2cccc3ccccc23)c2ccccc21` [JWH-018], the “%B/B0” value in assay [1] (setting [4]) is 9.29%; in assay [1] (JWH-018 standard 0.625 ng/ml) it was 68%; in assay [1] (JWH-018 standard 1.25 ng/ml), 53%; in assay [1] (JWH-018 standard 2.5 ng/ml), 34%; in assay [1] (JWH-018 standard 5 ng/ml), 25%; in assay [1] (JWH-018 standard 10 ng/ml), 17%. Besides, the “%B/B0” value is reported as 13% in assay [1] (JWH-018 standard 20 ng/ml); 10% in assay [1] (JWH-018 standard 40 ng/ml); 6.80% in assay [2] (setting [5]); 87% in assay [2] (JWH-018 standard 1.25 ng/ml); 68% in assay [2] (JWH-018 standard 2.5 ng/ml); 42% in assay [2] (JWH-018 standard 5 ng/ml). In addition, the “%B/B0” value in assay [2] (JWH-018 standard 10 ng/ml) was found to be 26%; in assay [2] (JWH-018 standard 20 ng/ml) it was 16%; in assay [2] (JWH-018 standard 40 ng/ml), 10%; in assay [2] (JWH-018 standard 80 ng/ml), 7%; in assay [3] it was 67.66%. For the same compound, the “IC50” value turned out to be 1.333 ng/mL in assay [1] (Table 3a standard curve, standard concentration which produces 50% B/B0) and 4.133 ng/mL in assay [2] (Table 3b standard curve, standard concentration which produces 50% B/B0).
For the compound `CCCCCn1cc(C(=O)c2ccc(Cl)c3ccccc23)c2ccccc21` [JWH-398], the “%B/B0” value in assay [1] (setting [4]) came to 30.31%; in assay [2] (setting [5]), 6.00%; in assay [3], 94.47%.
